Laboratory results taken from ChEMBL document CHEMBL4507258 (2021).

Key:
[1] = target: Cyclin-dependent kinase 11A (Homo sapiens) (UniProt Q9UQ88); conditions: Compound concentration 1000.0 nM
[2] = target: Dual serine/threonine and tyrosine protein kinase (Homo sapiens) (UniProt Q6XUX3); conditions: Compound concentration 1000.0 nM
[3] = target: 5-hydroxytryptamine receptor 2B (Homo sapiens, UniProt P41595); conditions: Compound concentration 10.0 uM
[4] = target: Phosphatidylinositol 4,5-bisphosphate 3-kinase catalytic subunit beta isoform (Homo sapiens) (UniProt P42338); conditions: Compound concentration 1000.0 nM
[5] = target: D(2) dopamine receptor (Homo sapiens) (UniProt P14416); conditions: Compound concentration 10.0 uM
[6] = target: Histamine H2 receptor (Homo sapiens) (UniProt P25021); conditions: Compound concentration 10.0 uM
[7] = target: Serine/threonine-protein kinase Sgk3 (Homo sapiens) (UniProt Q96BR1); conditions: Compound concentration 1000.0 nM
[8] = target: MAP/microtubule affinity-regulating kinase 4 (Homo sapiens) (UniProt Q96L34); conditions: Compound concentration 1000.0 nM
[9] = target: Receptor tyrosine-protein kinase erbB-3 (Homo sapiens) (UniProt P21860); conditions: Compound concentration 1000.0 nM
[10] = target: Mitogen-activated protein kinase 3 (Homo sapiens) (UniProt P27361); conditions: Compound concentration 1000.0 nM
Mitogen-activated protein kinase 3 (Homo sapiens), sequence (P27361 whole entry): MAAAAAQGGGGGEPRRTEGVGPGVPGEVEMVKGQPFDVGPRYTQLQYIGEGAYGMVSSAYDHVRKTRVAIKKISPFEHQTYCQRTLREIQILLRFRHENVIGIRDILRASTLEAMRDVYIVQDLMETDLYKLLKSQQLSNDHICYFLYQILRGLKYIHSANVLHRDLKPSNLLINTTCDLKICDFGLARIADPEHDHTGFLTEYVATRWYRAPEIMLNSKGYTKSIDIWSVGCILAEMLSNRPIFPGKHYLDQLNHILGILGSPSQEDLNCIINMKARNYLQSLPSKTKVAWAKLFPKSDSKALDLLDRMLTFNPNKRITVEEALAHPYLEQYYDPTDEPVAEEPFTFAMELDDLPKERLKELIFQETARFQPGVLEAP

[11] = target: Mitogen-activated protein kinase kinase kinase 9 (Homo sapiens) (UniProt P80192); conditions: Compound concentration 1000.0 nM
[12] = target: SNF-related serine/threonine-protein kinase (Homo sapiens) (UniProt Q9NRH2); conditions: Compound concentration 1000.0 nM
[13] = target: T1, 5-hydroxytryptamine receptor 1A (Homo sapiens) (UniProt P08908); conditions: Compound concentration 10.0 uM
T1 sequence (whole entry): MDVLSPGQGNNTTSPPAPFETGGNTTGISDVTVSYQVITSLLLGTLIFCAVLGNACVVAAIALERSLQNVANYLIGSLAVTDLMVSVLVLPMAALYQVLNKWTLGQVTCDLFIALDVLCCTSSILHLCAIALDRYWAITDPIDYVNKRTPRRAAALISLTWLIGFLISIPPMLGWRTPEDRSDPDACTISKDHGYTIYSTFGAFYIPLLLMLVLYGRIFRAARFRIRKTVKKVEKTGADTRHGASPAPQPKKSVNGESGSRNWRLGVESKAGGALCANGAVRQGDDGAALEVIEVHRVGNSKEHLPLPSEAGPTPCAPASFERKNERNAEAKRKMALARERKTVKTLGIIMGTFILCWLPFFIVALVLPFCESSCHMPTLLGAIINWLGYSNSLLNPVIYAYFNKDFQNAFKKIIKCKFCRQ

[14] = target: MAP/microtubule affinity-regulating kinase 3 (Homo sapiens) (UniProt P27448); conditions: Compound concentration 1000.0 nM
[15] = target: Serine/threonine-protein kinase 32B (Homo sapiens) (UniProt Q9NY57); conditions: Compound concentration 1000.0 nM
Serine/threonine-protein kinase 32B (Homo sapiens), sequence (Q9NY57 whole entry, canonical isoform): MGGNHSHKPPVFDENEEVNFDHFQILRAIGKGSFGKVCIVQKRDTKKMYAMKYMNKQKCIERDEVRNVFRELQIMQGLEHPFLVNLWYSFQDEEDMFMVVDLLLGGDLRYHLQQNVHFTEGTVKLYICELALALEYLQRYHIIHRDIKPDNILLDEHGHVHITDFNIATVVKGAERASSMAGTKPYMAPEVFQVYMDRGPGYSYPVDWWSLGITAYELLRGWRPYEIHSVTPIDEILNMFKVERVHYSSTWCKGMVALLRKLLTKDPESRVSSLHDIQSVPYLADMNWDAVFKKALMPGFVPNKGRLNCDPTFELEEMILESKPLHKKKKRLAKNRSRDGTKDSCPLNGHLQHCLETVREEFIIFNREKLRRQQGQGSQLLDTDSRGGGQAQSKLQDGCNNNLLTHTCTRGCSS

[16] = target: Casein kinase I isoform epsilon (Homo sapiens) (UniProt P49674); conditions: Compound concentration 1000.0 nM
[17] = target: Beta-3 adrenergic receptor (Homo sapiens) (UniProt P13945); conditions: Compound concentration 10.0 uM
[18] = target: Mitogen-activated protein kinase kinase kinase 12 (Homo sapiens) (UniProt Q12852); conditions: Compound concentration 1000.0 nM
[19] = target: Tyrosine-protein kinase ABL1 (Homo sapiens) (UniProt P00519); conditions: Compound concentration 1000.0 nM
Tyrosine-protein kinase ABL1 (Homo sapiens), sequence (P00519 whole entry): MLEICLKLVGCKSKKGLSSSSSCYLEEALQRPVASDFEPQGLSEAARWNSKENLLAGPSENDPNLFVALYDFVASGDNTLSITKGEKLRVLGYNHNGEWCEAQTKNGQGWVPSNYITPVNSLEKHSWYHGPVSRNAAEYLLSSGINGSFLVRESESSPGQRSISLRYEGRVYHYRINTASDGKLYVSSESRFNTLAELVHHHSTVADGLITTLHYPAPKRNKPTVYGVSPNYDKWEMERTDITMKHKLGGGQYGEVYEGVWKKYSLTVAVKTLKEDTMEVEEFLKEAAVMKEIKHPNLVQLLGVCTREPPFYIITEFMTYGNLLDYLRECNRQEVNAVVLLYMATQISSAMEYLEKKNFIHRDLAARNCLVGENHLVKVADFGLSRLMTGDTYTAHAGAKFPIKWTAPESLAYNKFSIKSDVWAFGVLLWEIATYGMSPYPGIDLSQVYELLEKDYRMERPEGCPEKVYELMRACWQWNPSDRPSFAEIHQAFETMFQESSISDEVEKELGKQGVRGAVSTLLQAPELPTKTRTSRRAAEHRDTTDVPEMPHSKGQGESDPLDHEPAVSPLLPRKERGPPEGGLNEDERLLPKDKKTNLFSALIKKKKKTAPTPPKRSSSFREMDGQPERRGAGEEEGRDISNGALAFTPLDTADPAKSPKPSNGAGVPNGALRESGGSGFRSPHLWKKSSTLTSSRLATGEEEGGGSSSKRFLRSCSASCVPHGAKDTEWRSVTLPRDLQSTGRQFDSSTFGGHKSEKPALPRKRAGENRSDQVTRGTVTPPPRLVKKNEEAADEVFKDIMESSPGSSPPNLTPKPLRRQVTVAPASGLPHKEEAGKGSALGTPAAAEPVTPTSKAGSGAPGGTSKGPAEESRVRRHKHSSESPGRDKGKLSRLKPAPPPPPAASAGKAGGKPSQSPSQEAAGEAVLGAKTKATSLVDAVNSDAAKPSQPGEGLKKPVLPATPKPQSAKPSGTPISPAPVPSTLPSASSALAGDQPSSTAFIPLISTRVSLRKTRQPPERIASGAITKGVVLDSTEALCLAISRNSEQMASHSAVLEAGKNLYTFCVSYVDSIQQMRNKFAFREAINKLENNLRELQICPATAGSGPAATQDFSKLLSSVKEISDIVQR

[20] = target: Serine/threonine-protein kinase Nek6 (Homo sapiens) (UniProt Q9HC98); conditions: Compound concentration 1000.0 nM
[21] = target: Myosin light chain kinase, smooth muscle (Homo sapiens) (UniProt Q15746); conditions: Compound concentration 1000.0 nM
[22] = test system: eIF-2-alpha kinase GCN2 (Homo sapiens), Q9P2K8 [S808G]; conditions: Compound concentration 1000.0 nM
[23] = target: Ephrin type-A receptor 7 (Homo sapiens) (UniProt Q15375); conditions: Compound concentration 1000.0 nM
[24] = target: Ribosomal protein S6 kinase alpha-3 (Homo sapiens) (UniProt P51812); conditions: Compound concentration 1000.0 nM
[25] = target: Insulin receptor-related protein (Homo sapiens) (UniProt P14616); conditions: Compound concentration 1000.0 nM
[26] = test system: Phosphatidylinositol 4,5-bisphosphate 3-kinase catalytic subunit alpha isoform (Homo sapiens), P42336 [Q546K]; conditions: Compound concentration 1000.0 nM
Phosphatidylinositol 4,5-bisphosphate 3-kinase catalytic subunit alpha isoform (Homo sapiens), P42336 [Q546K], sequence (P42336 whole entry Q546K, canonical isoform): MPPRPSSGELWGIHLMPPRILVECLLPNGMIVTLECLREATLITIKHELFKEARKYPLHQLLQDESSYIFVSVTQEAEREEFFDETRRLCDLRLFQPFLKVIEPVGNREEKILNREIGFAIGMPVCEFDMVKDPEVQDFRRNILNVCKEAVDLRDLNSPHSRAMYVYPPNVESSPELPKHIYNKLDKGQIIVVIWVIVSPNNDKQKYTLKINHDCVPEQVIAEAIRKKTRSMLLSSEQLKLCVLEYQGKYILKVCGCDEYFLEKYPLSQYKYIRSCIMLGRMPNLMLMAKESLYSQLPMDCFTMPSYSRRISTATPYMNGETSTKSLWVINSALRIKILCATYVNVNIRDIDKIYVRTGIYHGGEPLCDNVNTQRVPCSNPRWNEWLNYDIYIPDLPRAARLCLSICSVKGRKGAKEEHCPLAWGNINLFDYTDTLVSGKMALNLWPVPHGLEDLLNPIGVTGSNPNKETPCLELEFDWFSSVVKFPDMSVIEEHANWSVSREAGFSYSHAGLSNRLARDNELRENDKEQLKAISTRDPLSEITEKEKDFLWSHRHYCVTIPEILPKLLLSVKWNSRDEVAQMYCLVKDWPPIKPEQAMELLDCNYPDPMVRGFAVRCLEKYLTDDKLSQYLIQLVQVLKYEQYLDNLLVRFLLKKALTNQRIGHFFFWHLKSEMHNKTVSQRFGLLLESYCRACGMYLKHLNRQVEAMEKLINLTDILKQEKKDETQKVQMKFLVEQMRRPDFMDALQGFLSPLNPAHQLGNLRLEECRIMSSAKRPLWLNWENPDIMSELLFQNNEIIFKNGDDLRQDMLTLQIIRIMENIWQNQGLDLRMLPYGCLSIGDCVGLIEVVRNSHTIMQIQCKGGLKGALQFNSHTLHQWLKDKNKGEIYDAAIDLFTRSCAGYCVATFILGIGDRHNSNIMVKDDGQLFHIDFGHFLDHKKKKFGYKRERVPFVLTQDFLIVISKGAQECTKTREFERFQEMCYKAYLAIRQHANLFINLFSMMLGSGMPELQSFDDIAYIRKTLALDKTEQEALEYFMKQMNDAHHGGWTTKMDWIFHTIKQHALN

[27] = target: Serine/threonine-protein kinase pim-1 (Homo sapiens) (UniProt P11309); conditions: Compound concentration 1000.0 nM
[28] = test system: Proto-oncogene tyrosine-protein kinase receptor Ret (Homo sapiens), P07949 [V804M]; conditions: Compound concentration 1000.0 nM
[29] = target: RAC-gamma serine/threonine-protein kinase (Homo sapiens) (UniProt Q9Y243); conditions: Compound concentration 1000.0 nM
RAC-gamma serine/threonine-protein kinase (Homo sapiens), sequence (Q9Y243 whole entry): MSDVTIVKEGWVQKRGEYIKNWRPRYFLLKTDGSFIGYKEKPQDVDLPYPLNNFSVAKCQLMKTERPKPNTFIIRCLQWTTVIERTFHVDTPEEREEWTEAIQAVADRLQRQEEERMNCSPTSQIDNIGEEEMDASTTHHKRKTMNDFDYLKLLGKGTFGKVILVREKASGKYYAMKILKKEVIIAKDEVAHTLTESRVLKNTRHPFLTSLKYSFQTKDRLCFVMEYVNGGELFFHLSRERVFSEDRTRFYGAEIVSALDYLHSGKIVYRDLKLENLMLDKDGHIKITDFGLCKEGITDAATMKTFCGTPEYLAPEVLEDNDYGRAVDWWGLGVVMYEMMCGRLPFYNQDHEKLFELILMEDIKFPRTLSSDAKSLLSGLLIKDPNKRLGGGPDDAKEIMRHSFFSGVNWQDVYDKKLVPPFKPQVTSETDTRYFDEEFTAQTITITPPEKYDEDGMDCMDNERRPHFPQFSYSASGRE

[30] = target: Serine/threonine-protein kinase WNK2 (Homo sapiens) (UniProt Q9Y3S1); conditions: Compound concentration 1000.0 nM
[31] = test system: Epidermal growth factor receptor (Homo sapiens), P00533 [UNDEFINED MUTATION]; conditions: Compound concentration 1000.0 nM
[32] = target: Focal adhesion kinase 1 (Homo sapiens) (UniProt Q05397); conditions: Compound concentration 1000.0 nM
[33] = target: Cyclin-dependent kinase 5 (Homo sapiens) (UniProt Q00535); conditions: Compound concentration 1000.0 nM
[34] = target: Tyrosine-protein kinase Yes (Homo sapiens) (UniProt P07947); conditions: Compound concentration 1000.0 nM
[35] = target: Serine/threonine-protein kinase N2 (Homo sapiens) (UniProt Q16513); conditions: Compound concentration 1000.0 nM
[36] = target: Mitogen-activated protein kinase kinase kinase 3 (Homo sapiens) (UniProt Q99759); conditions: Compound concentration 1000.0 nM
Mitogen-activated protein kinase kinase kinase 3 (Homo sapiens), sequence (Q99759 whole entry): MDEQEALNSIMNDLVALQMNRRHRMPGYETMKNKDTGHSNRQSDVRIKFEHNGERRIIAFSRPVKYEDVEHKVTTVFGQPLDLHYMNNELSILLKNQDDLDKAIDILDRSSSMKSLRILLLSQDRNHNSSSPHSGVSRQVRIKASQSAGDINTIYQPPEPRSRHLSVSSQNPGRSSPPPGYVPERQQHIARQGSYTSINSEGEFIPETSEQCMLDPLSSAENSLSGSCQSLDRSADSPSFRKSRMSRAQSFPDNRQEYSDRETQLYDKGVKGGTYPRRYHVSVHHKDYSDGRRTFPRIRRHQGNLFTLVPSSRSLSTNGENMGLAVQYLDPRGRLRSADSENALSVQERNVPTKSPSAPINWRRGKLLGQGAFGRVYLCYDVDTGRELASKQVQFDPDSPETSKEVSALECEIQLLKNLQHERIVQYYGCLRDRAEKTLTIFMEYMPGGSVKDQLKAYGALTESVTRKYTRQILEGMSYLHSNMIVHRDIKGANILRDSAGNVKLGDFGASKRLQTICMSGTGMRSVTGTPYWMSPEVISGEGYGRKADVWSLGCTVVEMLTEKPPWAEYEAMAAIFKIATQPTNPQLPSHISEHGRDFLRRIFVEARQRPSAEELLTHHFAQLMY

[37] = test system: Receptor-type tyrosine-protein kinase FLT3 (Homo sapiens), P36888 [K663Q]; conditions: Compound concentration 1000.0 nM
[38] = target: Cyclin-dependent kinase-like 5 (Homo sapiens) (UniProt O76039); conditions: Compound concentration 1000.0 nM
[39] = target: Phosphatidylinositol 3-kinase catalytic subunit type 3 (Homo sapiens) (UniProt Q8NEB9); conditions: Compound concentration 1000.0 nM

Dual serine/threonine and tyrosine protein kinase (Homo sapiens), sequence (Q6XUX3 whole entry): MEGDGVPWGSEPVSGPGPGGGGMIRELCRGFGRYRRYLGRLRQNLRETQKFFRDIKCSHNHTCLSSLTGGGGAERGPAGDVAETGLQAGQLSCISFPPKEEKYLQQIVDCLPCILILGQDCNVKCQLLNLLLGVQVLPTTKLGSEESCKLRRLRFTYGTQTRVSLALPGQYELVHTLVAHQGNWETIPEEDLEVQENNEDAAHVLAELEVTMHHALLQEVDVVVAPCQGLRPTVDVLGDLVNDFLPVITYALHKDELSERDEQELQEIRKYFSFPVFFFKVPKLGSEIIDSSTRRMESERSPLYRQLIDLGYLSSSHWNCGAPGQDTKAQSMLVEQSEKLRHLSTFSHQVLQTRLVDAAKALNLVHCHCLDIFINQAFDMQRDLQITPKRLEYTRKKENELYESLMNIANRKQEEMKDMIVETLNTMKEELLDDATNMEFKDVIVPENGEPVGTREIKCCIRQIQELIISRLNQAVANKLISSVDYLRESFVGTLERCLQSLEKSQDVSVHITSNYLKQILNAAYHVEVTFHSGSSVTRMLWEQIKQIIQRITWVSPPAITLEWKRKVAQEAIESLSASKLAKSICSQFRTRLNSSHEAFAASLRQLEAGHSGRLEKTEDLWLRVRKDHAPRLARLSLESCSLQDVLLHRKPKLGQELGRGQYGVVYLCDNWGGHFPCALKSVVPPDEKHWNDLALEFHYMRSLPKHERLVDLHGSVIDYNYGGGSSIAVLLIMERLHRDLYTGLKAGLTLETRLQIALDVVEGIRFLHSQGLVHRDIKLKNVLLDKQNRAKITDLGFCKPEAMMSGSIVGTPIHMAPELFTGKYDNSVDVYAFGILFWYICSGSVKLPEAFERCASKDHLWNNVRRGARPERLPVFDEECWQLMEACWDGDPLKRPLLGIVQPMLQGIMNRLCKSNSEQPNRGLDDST

| Compound | residual activity [1] [%] | residual activity [2] [%] | inhibition [3] [%] | residual activity [4] [%] | inhibition [5] [%] | inhibition [6] [%] | residual activity [7] [%] | residual activity [8] [%] | residual activity [9] [%] | residual activity [10] [%] | residual activity [11] [%] | residual activity [12] [%] | inhibition [13] [%] | residual activity [14] [%] | residual activity [15] [%] | residual activity [16] [%] | inhibition [17] [%] | residual activity [18] [%] | residual activity [19] [%] | residual activity [20] [%] | also measured |
| --- | --- | --- | --- | --- | --- | --- | --- | --- | --- | --- | --- | --- | --- | --- | --- | --- | --- | --- | --- | --- | --- |
| CCCCN(CCCC)C(=O)CN1C[C@@H](c2cc(OC)c3c(c2)OCO3)[C@H](C(=O)O)[C@H]1CC(C)(C)CCC [A-545] | 98.3 | 99.7 | 76 | 100 | 21.3 | 8.46 | 100 | 93 | 100 | 100 | 98.8 | 98.4 | 76.3 | 93.7 | 98.4 | 100 | 28.4 | 89.9 | 100 | 98.1 | residual activity [21]: 84.4%; residual activity [22]: 100%; residual activity [23]: 100%; residual activity [24]: 99.2%; residual activity [25]: 93.2%; residual activity [26]: 100%; residual activity [27]: 91.7%; residual activity [28]: 82.4%; residual activity [29]: 100%; residual activity [30]: 99.3%; residual activity [31]: 100%; residual activity [32]: 100%; residual activity [33]: 97.7%; residual activity [34]: 95.3%; residual activity [35]: 100%; residual activity [36]: 100%; residual activity [37]: 80.1%; residual activity [38]: 100%; residual activity [39]: 98.7% |
| CCCCN(CCCC)C(=O)CN1C[C@H](c2cc(OC)c3c(c2)OCO3)[C@@H](C(=O)O)[C@@H]1CC(C)(C)CCC [ABT-546] | 100 | 68.6 | -9.89 | 56.9 | 21.3 | 24.3 | 75.7 | 98.3 | 100 | 100 | 100 | 100 | 20.6 | 98.7 | 81.7 | 100 | 2.71 | 72.1 | 79.8 | 100 | residual activity [21]: 100%; residual activity [22]: 100%; residual activity [23]: 100%; residual activity [24]: 100%; residual activity [25]: 100%; residual activity [26]: 67.3%; residual activity [27]: 100%; residual activity [28]: 100%; residual activity [29]: 100%; residual activity [30]: 60.2%; residual activity [31]: 85%; residual activity [32]: 100%; residual activity [33]: 100%; residual activity [34]: 100%; residual activity [35]: 100%; residual activity [36]: 94.3%; residual activity [37]: 100%; residual activity [38]: 71.4%; residual activity [39]: 49.9% |
